Laboratory results as given in patent US12180159B2, “Activators of the unfolded protein response” (The Board of Trustees of the University of Illinois, priority 2018, dated 2024).

Assays:
MCF-7 cells = experiment: Alamar blue fluorescence 24-hour cell death assay, MCF-7; format: cell-based, human; conditions: MCF7, 24 hour incubation, Alamar Blue (FIG. 4)
Experimental: ALAMAR BLUE/RAPTINAL ASSAY: Live cells maintain a reducing environment. The non-fluorescent cell permeable ingredient of Alamar Blue® (resazurin) is taken up by cells. In living cells, it is reduced to the fluorescent compound resorufin. Using a standard curve of cell number versus fluorescence the number of live cells in a test sample can be determined. At high concentrations raptinal kills 100% of cells. The vehicle in which the test compound is dissolved is not toxic. Thus, after subtracting the blank for medium alone, the fluorescence reading for vehicle corresponds to 100% viable cells and the signal for raptinal corresponds to 0% viable cells. […]
ALAMAR BLUE RAPTINAL ASSAYS: Cells were plated at 4,000-10,000 cells/well (96 well plate), usually in 50 μl of medium. […] After 24 hours Alamar Blue reagent was added and fluorescence in the wells was read (BMG PheraStar or Molecular Devices Spectra Max M3 Microplate Reader). % relative death was determined by setting the reading for raptinal-treated cells to 100% dead cells and the reading for vehicle-treated cells to 0% dead cells.
Preparative gram-scale chiral separation of (±)-1 yields enantiopure (R)-1 and (S)-1 with opposite optical rotations (Scheme 5). […] Values were obtained after 24-hour incubation utilizing Alamar blue fluorescence assay normalized to live and death controls (vehicle and raptinal treated). […]

MCF-7 tumors = experiment: MCF-7 orthotopic tumor model; format: in vivo, mouse
Experimental: FIG. 39. SERK-F6 eradicates wild-type ERα tumors via hyperactivation of aUPR. a, MCF-7 orthotopic tumors were established in Nu/J ovariectomized mice supplemented with a 60 day E2 pellet (0.36 mg) and grown to ˜400 mm^3 (28 days to establish), randomized, then treated with vehicle daily (n=3), vehicle weekly (n=3), fulv. weekly (5 mg/mouse, s.c., n=6), SERK-F6 daily (10 or 40 mg/kg p.o.). Vehicle arms were averaged. p values: *: p<0.05, **: p<0.01, ***: p<0.001, ****: p<0.0001. Tumor images were taken at the end of the study (day 21) and are representative of all tumors (n=6). b-e, MCF-7 cells were orthotopically bi-laterally grafted and tumors were grown until total tumor burden was ˜ 400 mm^3 prior to daily treatment with vehicle or SERK-F6 (40 mg/kg p.o.). Mice (n=5 per arm) were sacrificed after 3 days (b,c) and 7 days (d,e) and tumors harvested. […] Vinculin (Vin) was used as a loading control. […] Error bars represent S.E.M.
FIG. 40. SERK-F6 is tolerated, reaches biologically relevant concentrations, and crosses the blood-brain barrier in vivo. a, Serum concentrations of SERK-F6 after indicated doses, route of administration, and time. Concentration was determined via LC/MS/MS analysis. […] AUC: Area Under the Curve, Cmax: maximum concentration, t1/2: half-life. c,d, Mice (CD-1) were treated with the indicated doses and times, then sacrificed and their serum and brains collected. Concentrations were determined via LC/MS/MS analysis. […] Treatment arms: vehicle daily (n=3), vehicle weekly (n=3), fulv. weekly (5 mg/mouse, s.c., n=6), SERK-F6 daily (10 or 40 mg/kg p.o.). Vehicle arms were combined. g, Mass of tumors harvested from mice. h, observed murine weight during this MCF-7 study (n=6). i,j, Tumor measurements for MCF-7 bilateral orthotopic model (n=4-5).
To probe the efficacy of SERK-F6 for killing ERα positive tumors, large MCF-7 tumors were grown and then intervened with therapy. […] The mice were then sacrificed prior to complete tumor eradication.

## O=C1Nc2c(C(F)(F)F)cccc2C1(c1ccc(O)cc1)c1ccc(OC(F)(F)F)cc1 (single isomer, unassigned; (-)) [(−)-105, 3-(4-hydroxyphenyl)-3-(4-(trifluoromethoxy)phenyl)-7-(trifluoromethyl)indolin-2-one]
MCF-7 cells
  ability to kill compared with BHPI and 01-15: superior to BHPI and 01-15
MCF-7 tumors; 40 mg/kg p.o., tumors harvested before eradication
  in-vivo UPR markers in tumors: increases in P-PERK and P-eiF2alpha levels
MCF-7 tumors; mouse, in vivo
  effect on large established MCF-7 tumors: dramatic tumor regressions
